# Measurements: ChEMBL document CHEMBL4507298 (2021)
# Assays:
# [1] = biological target: Serine/threonine-protein kinase WNK3 (Homo sapiens) (UniProt Q9BYP7); conditions: Compound concentration 1000.0 nM
# [2] = biological target: Mitogen-activated protein kinase kinase kinase 5 (Homo sapiens) (UniProt Q99683); conditions: Compound concentration 1000.0 nM
# [3] = biological target: Dual specificity protein kinase CLK1 (Homo sapiens) (UniProt P49759); conditions: Compound concentration 1000.0 nM
# [4] = biological target: Serine/threonine-protein kinase PAK 1 (Homo sapiens) (UniProt Q13153); conditions: Compound concentration 1000.0 nM
# [5] = biological target: Serine/threonine-protein kinase Nek11 (Homo sapiens) (UniProt Q8NG66); conditions: Compound concentration 1000.0 nM
# [6] = biological target: Dual specificity tyrosine-phosphorylation-regulated kinase 2 (Homo sapiens) (UniProt Q92630); conditions: Compound concentration 1000.0 nM
# [7] = biological target: Beta-1 adrenergic receptor (Homo sapiens) (UniProt P08588); experiment: beta 1 (h) CEREP ligand profiling; conditions: Compound concentration 10.0 uM
# [8] = biological target: Aurora kinase C (Homo sapiens) (UniProt Q9UQB9); conditions: Compound concentration 1000.0 nM
# [9] = biological target: T1, Muscarinic acetylcholine receptor M5 (Homo sapiens) (UniProt P08912); experiment: M5 (h) CEREP ligand profiling; conditions: Compound concentration 10.0 uM
# T1 sequence (whole entry): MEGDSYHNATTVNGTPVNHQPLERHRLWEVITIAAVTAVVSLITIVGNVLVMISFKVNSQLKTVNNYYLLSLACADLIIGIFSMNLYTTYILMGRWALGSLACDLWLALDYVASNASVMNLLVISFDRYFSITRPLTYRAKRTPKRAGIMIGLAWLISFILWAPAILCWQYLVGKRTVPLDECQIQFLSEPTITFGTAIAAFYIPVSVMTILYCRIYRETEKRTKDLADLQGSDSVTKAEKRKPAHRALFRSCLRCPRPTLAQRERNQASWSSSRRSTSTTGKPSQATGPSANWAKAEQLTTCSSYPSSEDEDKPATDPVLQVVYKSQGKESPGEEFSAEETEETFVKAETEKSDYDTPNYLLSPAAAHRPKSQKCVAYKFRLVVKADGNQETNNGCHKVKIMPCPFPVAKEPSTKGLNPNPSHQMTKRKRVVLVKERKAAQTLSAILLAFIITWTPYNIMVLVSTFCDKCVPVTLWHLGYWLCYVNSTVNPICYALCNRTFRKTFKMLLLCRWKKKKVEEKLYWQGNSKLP
# [10] = biological target: Mitogen-activated protein kinase kinase kinase kinase 5 (Homo sapiens) (UniProt Q9Y4K4); conditions: Compound concentration 1000.0 nM
# [11] = biological target: Serine/threonine-protein kinase 36 (Homo sapiens) (UniProt Q9NRP7); conditions: Compound concentration 1000.0 nM
# [12] = biological target: Tyrosine-protein kinase Mer (Homo sapiens) (UniProt Q12866); conditions: Compound concentration 1000.0 nM
# [13] = biological target: Non-receptor tyrosine-protein kinase TYK2 (Homo sapiens) (UniProt P29597); conditions: Compound concentration 1000.0 nM
# [14] = biological target: Serine/threonine-protein kinase 17A (Homo sapiens) (UniProt Q9UEE5); conditions: Compound concentration 1000.0 nM
# [15] = biological target: T2, 5-hydroxytryptamine receptor 2C (Homo sapiens) (UniProt P28335); experiment: 5-HT2C (h) (agonist site) CEREP ligand profiling; conditions: Compound concentration 10.0 uM
# T2 sequence (whole entry): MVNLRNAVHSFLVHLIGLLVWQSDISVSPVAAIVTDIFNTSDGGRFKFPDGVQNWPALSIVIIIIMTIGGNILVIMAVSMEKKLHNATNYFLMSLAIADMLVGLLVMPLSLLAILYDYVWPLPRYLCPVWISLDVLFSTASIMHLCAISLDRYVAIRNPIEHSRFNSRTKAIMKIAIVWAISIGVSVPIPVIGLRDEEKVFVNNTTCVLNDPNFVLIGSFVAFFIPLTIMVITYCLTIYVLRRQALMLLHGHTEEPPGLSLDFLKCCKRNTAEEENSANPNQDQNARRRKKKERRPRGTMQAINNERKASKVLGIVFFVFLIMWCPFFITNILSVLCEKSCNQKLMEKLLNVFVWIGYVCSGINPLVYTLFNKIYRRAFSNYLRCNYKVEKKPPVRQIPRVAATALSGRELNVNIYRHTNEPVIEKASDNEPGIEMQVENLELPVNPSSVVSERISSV
# [16] = biological target: Tyrosine-protein kinase ZAP-70 (Homo sapiens) (UniProt P43403); experiment: ZAP70 kinase (h) CEREP ligand profiling; conditions: Compound concentration 10.0 uM
# [17] = biological target: Tumor necrosis factor (Homo sapiens) (UniProt P01375); experiment: TNF-alpha (h) CEREP ligand profiling; conditions: Compound concentration 10.0 uM
# [18] = biological target: NUAK family SNF1-like kinase 1 (Homo sapiens) (UniProt O60285); conditions: Compound concentration 1000.0 nM
# [19] = biological target: Endothelin receptor type B (Homo sapiens) (UniProt P24530); experiment: ETB (h) CEREP ligand profiling; conditions: Compound concentration 10.0 uM
# [20] = biological target: MAO-A (Amine oxidase [flavin-containing] A) (Homo sapiens, UniProt P21397); experiment: MAO-A CEREP ligand profiling; conditions: compound concentration 10 uM
# [21] = biological target: TRAF2 and NCK-interacting protein kinase (Homo sapiens) (UniProt Q9UKE5); conditions: Compound concentration 1000.0 nM
# [22] = biological target: 1-phosphatidylinositol 3-phosphate 5-kinase (Homo sapiens) (UniProt Q9Y2I7); conditions: Compound concentration 1000.0 nM
# [23] = biological target: Carbonic anhydrase 2 (Homo sapiens) (UniProt P00918); experiment: Carbonic anhydrase II (h) CEREP ligand profiling; conditions: Compound concentration 10.0 uM
# [24] = biological target: Bone morphogenetic protein receptor type-1A (Homo sapiens) (UniProt P36894); conditions: Compound concentration 1000.0 nM
# [25] = biological target: Mitogen-activated protein kinase kinase kinase kinase 1 (Homo sapiens) (UniProt Q92918); conditions: Compound concentration 1000.0 nM
# [26] = biological target: Na+ channel (site 2), sodium channel alpha subunit (Homo sapiens, UniProt P35498+P35499+Q01118+Q14524+Q15858+Q99250+Q9NY46+Q9UI33+Q9UQD0+Q9Y5Y9); experiment: Na+ channel (site 2) CEREP ligand profiling; type: protein assay; conditions: compound concentration 10 uM
# [27] = biological target: G protein-coupled receptor kinase 3 (Homo sapiens) (UniProt P35626); conditions: Compound concentration 1000.0 nM
# [28] = biological target: cGMP-dependent protein kinase 2 (Homo sapiens) (UniProt Q13237); conditions: Compound concentration 1000.0 nM
# [29] = biological target: Serine/threonine-protein kinase PAK 2 (Homo sapiens) (UniProt Q13177); conditions: Compound concentration 1000.0 nM
# [30] = biological target: Melanocortin receptor 4 (Homo sapiens) (UniProt P32245); experiment: MC4 (h) CEREP ligand profiling; conditions: Compound concentration 10.0 uM
# [31] = biological target: T2, 5-hydroxytryptamine receptor 2C (Homo sapiens); experiment: 5-HT2C (h) CEREP ligand profiling; conditions: Compound concentration 10.0 uM
# [32] = biological target: Dual specificity protein kinase CLK3 (Homo sapiens) (UniProt P49761); conditions: Compound concentration 1000.0 nM
# Chain of Serine/threonine-protein kinase PAK 2 (Homo sapiens) (Q13177 whole entry): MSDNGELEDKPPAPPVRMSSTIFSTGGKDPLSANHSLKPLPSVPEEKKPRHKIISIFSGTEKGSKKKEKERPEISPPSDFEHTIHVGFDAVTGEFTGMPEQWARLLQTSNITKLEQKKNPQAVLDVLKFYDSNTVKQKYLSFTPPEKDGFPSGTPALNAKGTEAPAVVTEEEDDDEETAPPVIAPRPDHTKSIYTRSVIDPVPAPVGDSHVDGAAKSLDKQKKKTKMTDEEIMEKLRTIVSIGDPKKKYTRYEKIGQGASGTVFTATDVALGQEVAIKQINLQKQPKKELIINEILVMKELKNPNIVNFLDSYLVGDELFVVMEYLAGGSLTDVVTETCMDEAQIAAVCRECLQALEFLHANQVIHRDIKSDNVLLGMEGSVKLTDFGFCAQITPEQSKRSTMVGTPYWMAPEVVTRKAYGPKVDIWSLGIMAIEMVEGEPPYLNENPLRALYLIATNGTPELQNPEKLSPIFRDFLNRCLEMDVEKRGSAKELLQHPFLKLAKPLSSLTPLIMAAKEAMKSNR
# Chain of Non-receptor tyrosine-protein kinase TYK2 (Homo sapiens) (P29597 whole entry): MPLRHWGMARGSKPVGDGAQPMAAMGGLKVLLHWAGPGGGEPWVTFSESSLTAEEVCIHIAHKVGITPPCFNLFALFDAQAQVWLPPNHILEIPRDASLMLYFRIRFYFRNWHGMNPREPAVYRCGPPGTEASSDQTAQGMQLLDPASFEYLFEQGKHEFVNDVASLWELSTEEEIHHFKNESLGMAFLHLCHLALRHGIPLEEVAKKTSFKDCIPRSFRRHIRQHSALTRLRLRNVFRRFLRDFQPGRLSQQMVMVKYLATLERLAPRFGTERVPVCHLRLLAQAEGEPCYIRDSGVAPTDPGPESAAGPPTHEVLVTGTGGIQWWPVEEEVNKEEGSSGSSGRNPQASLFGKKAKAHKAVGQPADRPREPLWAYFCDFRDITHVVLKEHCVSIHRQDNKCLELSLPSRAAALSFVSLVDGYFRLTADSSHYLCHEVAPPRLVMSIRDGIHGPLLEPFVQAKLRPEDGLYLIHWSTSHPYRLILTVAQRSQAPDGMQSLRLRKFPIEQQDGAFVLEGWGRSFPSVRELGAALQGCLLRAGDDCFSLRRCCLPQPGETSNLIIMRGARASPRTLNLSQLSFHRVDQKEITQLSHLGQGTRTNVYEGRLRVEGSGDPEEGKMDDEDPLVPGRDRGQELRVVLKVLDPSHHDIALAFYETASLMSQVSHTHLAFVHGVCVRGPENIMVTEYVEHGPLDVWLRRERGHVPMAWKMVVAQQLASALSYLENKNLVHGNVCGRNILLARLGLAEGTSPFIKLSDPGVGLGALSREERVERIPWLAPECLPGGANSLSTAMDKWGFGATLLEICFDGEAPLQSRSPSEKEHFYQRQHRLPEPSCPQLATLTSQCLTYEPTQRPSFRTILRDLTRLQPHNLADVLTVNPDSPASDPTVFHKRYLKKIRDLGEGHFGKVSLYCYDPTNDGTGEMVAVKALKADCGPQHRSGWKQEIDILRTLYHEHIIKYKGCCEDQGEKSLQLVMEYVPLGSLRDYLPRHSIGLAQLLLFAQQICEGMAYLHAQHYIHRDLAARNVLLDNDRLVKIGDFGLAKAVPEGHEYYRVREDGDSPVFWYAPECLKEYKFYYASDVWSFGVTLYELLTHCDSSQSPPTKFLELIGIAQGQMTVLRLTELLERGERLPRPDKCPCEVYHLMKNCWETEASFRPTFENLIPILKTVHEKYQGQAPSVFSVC
# Chain of Serine/threonine-protein kinase WNK3 (Homo sapiens) (Q9BYP7 whole entry): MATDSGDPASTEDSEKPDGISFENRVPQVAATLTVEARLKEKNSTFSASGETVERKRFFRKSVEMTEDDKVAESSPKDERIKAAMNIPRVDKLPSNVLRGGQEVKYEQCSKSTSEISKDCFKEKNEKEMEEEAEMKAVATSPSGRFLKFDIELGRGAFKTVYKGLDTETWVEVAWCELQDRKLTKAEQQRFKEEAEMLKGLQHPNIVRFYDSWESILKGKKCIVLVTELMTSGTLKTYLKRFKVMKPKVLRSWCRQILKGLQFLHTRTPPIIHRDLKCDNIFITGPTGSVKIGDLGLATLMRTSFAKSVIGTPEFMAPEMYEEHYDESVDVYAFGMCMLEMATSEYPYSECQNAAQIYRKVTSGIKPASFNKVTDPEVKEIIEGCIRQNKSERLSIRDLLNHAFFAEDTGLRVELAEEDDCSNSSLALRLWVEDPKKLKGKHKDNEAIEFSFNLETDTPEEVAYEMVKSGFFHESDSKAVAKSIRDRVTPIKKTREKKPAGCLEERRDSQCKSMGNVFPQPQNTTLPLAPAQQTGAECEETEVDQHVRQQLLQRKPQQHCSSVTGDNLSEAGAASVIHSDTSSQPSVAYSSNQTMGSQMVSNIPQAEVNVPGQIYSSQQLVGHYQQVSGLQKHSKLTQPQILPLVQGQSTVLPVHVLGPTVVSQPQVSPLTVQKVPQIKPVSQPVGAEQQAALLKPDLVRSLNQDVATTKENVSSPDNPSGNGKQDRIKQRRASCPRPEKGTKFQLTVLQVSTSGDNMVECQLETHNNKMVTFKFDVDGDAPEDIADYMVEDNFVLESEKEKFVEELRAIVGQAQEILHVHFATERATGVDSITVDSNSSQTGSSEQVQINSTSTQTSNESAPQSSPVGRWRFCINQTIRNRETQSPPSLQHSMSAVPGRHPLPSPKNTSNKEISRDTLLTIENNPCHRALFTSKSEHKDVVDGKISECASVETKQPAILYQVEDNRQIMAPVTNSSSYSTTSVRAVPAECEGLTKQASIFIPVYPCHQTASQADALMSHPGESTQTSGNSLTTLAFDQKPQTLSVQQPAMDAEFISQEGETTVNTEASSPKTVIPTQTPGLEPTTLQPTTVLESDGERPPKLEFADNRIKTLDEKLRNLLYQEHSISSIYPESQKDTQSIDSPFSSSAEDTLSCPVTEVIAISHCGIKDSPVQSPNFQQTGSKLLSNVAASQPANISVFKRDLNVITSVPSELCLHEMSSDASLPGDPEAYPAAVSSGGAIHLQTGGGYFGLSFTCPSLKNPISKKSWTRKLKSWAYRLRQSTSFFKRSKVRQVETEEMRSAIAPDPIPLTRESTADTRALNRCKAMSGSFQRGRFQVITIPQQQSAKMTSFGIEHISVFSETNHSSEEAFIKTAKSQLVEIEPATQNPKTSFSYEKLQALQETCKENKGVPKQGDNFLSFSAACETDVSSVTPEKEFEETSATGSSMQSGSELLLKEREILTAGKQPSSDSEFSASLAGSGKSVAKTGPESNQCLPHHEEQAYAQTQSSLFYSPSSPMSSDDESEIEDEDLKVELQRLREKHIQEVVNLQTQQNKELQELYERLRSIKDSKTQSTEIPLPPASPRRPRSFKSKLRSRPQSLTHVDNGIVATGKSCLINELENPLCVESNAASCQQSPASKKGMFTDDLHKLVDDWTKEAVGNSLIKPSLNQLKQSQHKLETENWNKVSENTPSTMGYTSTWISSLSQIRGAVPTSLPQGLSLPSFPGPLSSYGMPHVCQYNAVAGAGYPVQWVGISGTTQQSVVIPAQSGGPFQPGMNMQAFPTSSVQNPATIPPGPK
# Chain of Aurora kinase C (Homo sapiens) (Q9UQB9 whole entry): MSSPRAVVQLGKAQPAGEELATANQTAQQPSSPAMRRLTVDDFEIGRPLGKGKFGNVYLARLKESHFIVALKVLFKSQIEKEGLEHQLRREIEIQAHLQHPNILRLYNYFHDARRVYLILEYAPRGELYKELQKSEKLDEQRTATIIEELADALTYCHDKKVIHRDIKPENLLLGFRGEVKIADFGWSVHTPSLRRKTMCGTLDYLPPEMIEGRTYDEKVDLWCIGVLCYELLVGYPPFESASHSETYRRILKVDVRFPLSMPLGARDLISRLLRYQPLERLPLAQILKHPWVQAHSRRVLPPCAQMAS
# Chain of NUAK family SNF1-like kinase 1 (Homo sapiens) (O60285 whole entry): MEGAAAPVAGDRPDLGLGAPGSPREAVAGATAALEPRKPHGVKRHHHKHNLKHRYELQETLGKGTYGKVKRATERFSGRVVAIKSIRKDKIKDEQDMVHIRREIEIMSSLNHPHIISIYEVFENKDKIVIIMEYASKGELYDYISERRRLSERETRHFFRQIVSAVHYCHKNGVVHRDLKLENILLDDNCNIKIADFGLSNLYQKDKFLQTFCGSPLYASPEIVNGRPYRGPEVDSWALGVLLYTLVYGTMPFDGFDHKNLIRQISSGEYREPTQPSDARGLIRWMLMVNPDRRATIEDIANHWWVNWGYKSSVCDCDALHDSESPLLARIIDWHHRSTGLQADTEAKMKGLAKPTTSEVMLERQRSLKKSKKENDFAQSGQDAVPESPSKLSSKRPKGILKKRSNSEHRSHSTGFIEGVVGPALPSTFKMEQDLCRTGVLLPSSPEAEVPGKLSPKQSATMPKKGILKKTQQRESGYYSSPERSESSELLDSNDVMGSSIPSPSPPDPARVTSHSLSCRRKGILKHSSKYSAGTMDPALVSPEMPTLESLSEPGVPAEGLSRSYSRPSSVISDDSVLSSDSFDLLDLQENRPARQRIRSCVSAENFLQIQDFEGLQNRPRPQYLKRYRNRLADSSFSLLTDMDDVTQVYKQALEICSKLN
# Chain of Beta-1 adrenergic receptor (Homo sapiens) (P08588 whole entry, looked up): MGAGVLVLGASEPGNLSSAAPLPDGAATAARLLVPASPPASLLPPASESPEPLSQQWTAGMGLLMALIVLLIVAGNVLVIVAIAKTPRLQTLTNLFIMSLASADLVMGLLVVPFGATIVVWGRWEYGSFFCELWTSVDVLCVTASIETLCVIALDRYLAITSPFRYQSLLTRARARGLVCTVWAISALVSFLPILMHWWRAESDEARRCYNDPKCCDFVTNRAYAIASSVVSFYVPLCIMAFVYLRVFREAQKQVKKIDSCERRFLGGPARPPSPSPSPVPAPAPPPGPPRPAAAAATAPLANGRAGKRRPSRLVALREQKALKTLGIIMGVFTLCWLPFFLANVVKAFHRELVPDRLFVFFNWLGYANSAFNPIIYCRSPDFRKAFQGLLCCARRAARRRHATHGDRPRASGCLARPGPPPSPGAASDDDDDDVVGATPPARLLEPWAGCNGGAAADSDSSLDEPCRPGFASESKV
compound,measurement,setting,value
COc1ccc2cc(OCC3(C(=O)O)CN(C(=O)c4ccc(F)cc4)C3)ccc2c1 [PF-04418948],residual activity,[1],93%
same,residual activity,[2],98%
same,residual activity,[3],79%
same,residual activity,[4],87%
same,residual activity,[5],93%
same,residual activity,[6],84%
same,inhibition,[7],9%
same,residual activity,[8],98%
same,inhibition,[9],1%
same,residual activity,[10],86%
same,residual activity,[11],89%
same,residual activity,[12],80%
same,residual activity,[13],89%
same,residual activity,[14],81%
same,inhibition,[15],-6%
same,inhibition,[16],9%
same,inhibition,[17],-1%
same,residual activity,[18],94%
same,inhibition,[19],-1%
same,inhibition at 10 µM,[20],3% (not active)
same,residual activity,[21],61%
same,residual activity,[22],91%
same,inhibition,[23],9%
same,residual activity,[24],88%
same,residual activity,[25],95%
same,inhibition at 10 µM,[26],9% (not active)
same,residual activity,[27],67%
same,residual activity,[28],85%
same,residual activity,[29],83%
same,inhibition,[30],8%
same,inhibition,[31],8%
same,residual activity,[32],99%
